In the supplement of paper PMC11208160:

assay: recombinant UMI read abundance after kanamycin selection (control-corrected) (log10(CPM+1)); higher = more efficient recombination; extreme values may be limits of the assay; sequences stand for … in AGTGCAGAGAAAATCGGCCAGTTTTCTCTGCCTGCAGTCCGCATGCCGTGGGACCCCTTGGGTTCTAACCTGTTGCCTAGATTTATGCAGCGGACTGCCTTTCTCCCAAAGTGATAAACCGG…AGGTTGGTTTCACT; site = the 11-nt donor
How it was run: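 After plating on IPTG (0.07 mM) plus kanamycin, or unselected, in two replicates, recombinant UMIs were PCR-amplified across the donor–target junction and sequenced. The cells were Escherichia coli co-electroporated with a UMI-tagged donor and donor-binding-loop pair library and a target plasmid with a fixed target and T7-inducible IS621 bridge recombinase. Values are log10(CPM+1), with CPM averaged over replicates and scaled by control-derived factors.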
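Also: IS621 bridge recombinase in Escherichia coli cells against a fixed T5 target plasmid.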

Point of comparison: “TCCACCCCATGGACCGGTTTTCCCGGTAATCCGTATTTGCG (site TCCACCTCTCG)”, “recombinant UMI read abundance (log10)” value 0.00748. Against it:
- TCATAGACATGGACCGGTTTTCCCGGTAATCCGTATTTGCG (site TCACAGACTCG) — higher, 0.285
- TCATAGACATGGACCGGTTTTCCCGGTAATCCGTATTTGCG (site TCAGAGACTCG) — within 0.2 log units, 0.00296
- TCATAGACATGGACCGGTTTTCCCGGTAATCCGTATTTGCG (site TCATAGACTCG) — higher, 1.87
- TCATAGACATGGACCGGTTTTCCCGGTAATCCGTATTTGGA (site TCATAGACTTC) — higher, 0.712
- TCATCAGCATGGACCGGTTTTCCCGGTAATCCGTATTTGAT (site TCATCAGCTAT) — higher, 0.316
- TCATCTCCATGGACCGGTTTTCCCGGTAATCCGTATTTGTC (site TCATCTCCTGA) — within 0.2 log units, 0
- TCATGATCATGGACCGGTTTTCCCGGTAATCCGTATTTGCC (site TCATGATCTGG) — higher, 0.807
- TCATGATCATGGACCGGTTTTCCCGGTAATCCGTATTTGGA (site TCATGATCTTC) — higher, 1.32
- TCCAACCCATGGACCGGTTTTCCCGGTAATCCGTATTTGCC (site TCCAACCCTGG) — within 0.2 log units, 0
- TCCAACGCATGGACCGGTTTTCCCGGTAATCCGTATTTGAT (site TCCAACGCTAT) — within 0.2 log units, 0
- TCCACACCATGGACCGGTTTTCCCGGTAATCCGTATTTGAG (site TCCACACCTCT) — within 0.2 log units, 0.0221
- TCCACAGCATGGACCGGTTTTCCCGGTAATCCGTATTTGCG (site TCCACAGCTCG) — within 0.2 log units, 0
- TCCACAGCATGGACCGGTTTTCCCGGTAATCCGTATTTGCG (site TCCACCGCTCG) — within 0.2 log units, 0.00793
- TCCACAGCATGGACCGGTTTTCCCGGTAATCCGTATTTGCG (site TCCACGGCTCG) — within 0.2 log units, 0.0203
- TCCACAGCATGGACCGGTTTTCCCGGTAATCCGTATTTGCG (site TCCACTGCTCG) — within 0.2 log units, 0.0252
- TCCACCCCATGGACCGGTTTTCCCGGTAATCCGTATTTGCG (site TCCACCACTCG) — within 0.2 log units, 0.00655
- TCCACCCCATGGACCGGTTTTCCCGGTAATCCGTATTTGCG (site TCCACCCCTCG) — within 0.2 log units, 0.0148
- TCCACCCCATGGACCGGTTTTCCCGGTAATCCGTATTTGCG (site TCCACCGCTCG) — within 0.2 log units, 0.0184
- TCCACCGCATGGACCGGTTTTCCCGGTAATCCGTATTTGAG (site TCCACCGCTCA) — within 0.2 log units, 0.0207
- TCCACCGCATGGACCGGTTTTCCCGGTAATCCGTATTTGAG (site TCCACCGCTCC) — within 0.2 log units, 0.0231
- TCCACCGCATGGACCGGTTTTCCCGGTAATCCGTATTTGAG (site TCCACCGCTCG) — within 0.2 log units, 0.0211
- TCCACCGCATGGACCGGTTTTCCCGGTAATCCGTATTTGAG (site TCCACCGCTCT) — within 0.2 log units, 0.0235
- TCCACCGCATGGACCGGTTTTCCCGGTAATCCGTATTTGCA (site TCCACCGCTAG) — within 0.2 log units, 0.00852
- TCCACCGCATGGACCGGTTTTCCCGGTAATCCGTATTTGCA (site TCCACCGCTCG) — within 0.2 log units, 0
- TCCACCGCATGGACCGGTTTTCCCGGTAATCCGTATTTGCA (site TCCACCGCTGG) — within 0.2 log units, 0
- TCCACCGCATGGACCGGTTTTCCCGGTAATCCGTATTTGCA (site TCCACCGCTTG) — within 0.2 log units, 0.167
- TCCACCGCATGGACCGGTTTTCCCGGTAATCCGTATTTGTG (site TCCACCGCTCA) — within 0.2 log units, 0.0465
- TCCACCGCATGGACCGGTTTTCCCGGTAATCCGTATTTGTG (site TCCACCGCTCC) — within 0.2 log units, 0.00628
- TCCACCGCATGGACCGGTTTTCCCGGTAATCCGTATTTGTG (site TCCACCGCTCG) — within 0.2 log units, 0.00762
- TCCACCGCATGGACCGGTTTTCCCGGTAATCCGTATTTGTG (site TCCACCGCTCT) — within 0.2 log units, 0.0682
- TCCACTGCATGGACCGGTTTTCCCGGTAATCCGTATTTGCG (site TCCACAGCTCG) — within 0.2 log units, 0
- TCCACTGCATGGACCGGTTTTCCCGGTAATCCGTATTTGCG (site TCCACCGCTCG) — within 0.2 log units, 0
- TCCACTGCATGGACCGGTTTTCCCGGTAATCCGTATTTGCG (site TCCACGGCTCG) — within 0.2 log units, 0.00658
- TCCACTGCATGGACCGGTTTTCCCGGTAATCCGTATTTGCG (site TCCACTGCTCG) — within 0.2 log units, 0.0111
- TCCAGCACATGGACCGGTTTTCCCGGTAATCCGTATTTGTG (site TCCAGCACTCA) — within 0.2 log units, 0.0248
- TCCAGCGCATGGACCGGTTTTCCCGGTAATCCGTATTTGCG (site TCCAACGCTCG) — within 0.2 log units, 0
- TCCAGCGCATGGACCGGTTTTCCCGGTAATCCGTATTTGCG (site TCCACCGCTCG) — within 0.2 log units, 0.0119
- TCCAGCGCATGGACCGGTTTTCCCGGTAATCCGTATTTGCG (site TCCAGCGCTCG) — within 0.2 log units, 0.0428
- TCCAGCGCATGGACCGGTTTTCCCGGTAATCCGTATTTGCG (site TCCATCGCTCG) — within 0.2 log units, 0.00909
- TCCAGTTCATGGACCGGTTTTCCCGGTAATCCGTATTTGCC (site TCCAATTCTGG) — within 0.2 log units, 0
- TCCAGTTCATGGACCGGTTTTCCCGGTAATCCGTATTTGCC (site TCCACTTCTGG) — within 0.2 log units, 0
- TCCAGTTCATGGACCGGTTTTCCCGGTAATCCGTATTTGCC (site TCCAGTTCTGG) — within 0.2 log units, 0
- TCCAGTTCATGGACCGGTTTTCCCGGTAATCCGTATTTGCC (site TCCATTTCTGG) — within 0.2 log units, 0
- TCCATAACATGGACCGGTTTTCCCGGTAATCCGTATTTGGG (site TCCATAACTCC) — within 0.2 log units, 0.008
- TCCATGCCATGGACCGGTTTTCCCGGTAATCCGTATTTGAT (site TCCATGCCTAT) — within 0.2 log units, 0
- TCCATTCCATGGACCGGTTTTCCCGGTAATCCGTATTTGAT (site TCCATTCCTAT) — within 0.2 log units, 0
- TCCCATACATGGACCGGTTTTCCCGGTAATCCGTATTTGCG (site TCCCATACTCG) — within 0.2 log units, 0.00752
- TCCCATTCATGGACCGGTTTTCCCGGTAATCCGTATTTGCC (site TCCAATTCTGG) — within 0.2 log units, 0
- TCCCATTCATGGACCGGTTTTCCCGGTAATCCGTATTTGCC (site TCCCATTCTGG) — within 0.2 log units, 0
- TCCCATTCATGGACCGGTTTTCCCGGTAATCCGTATTTGCC (site TCCGATTCTGG) — within 0.2 log units, 0
- TCCCATTCATGGACCGGTTTTCCCGGTAATCCGTATTTGCC (site TCCTATTCTGG) — within 0.2 log units, 0
- TCCCCAACATGGACCGGTTTTCCCGGTAATCCGTATTTGTT (site TCCCCAACTAA) — within 0.2 log units, 0.0153
- TCCCGCTCATGGACCGGTTTTCCCGGTAATCCGTATTTGCC (site TCCCGCTCTGG) — within 0.2 log units, 0
- TCCCTGACATGGACCGGTTTTCCCGGTAATCCGTATTTGGA (site TCCCTGACTTC) — within 0.2 log units, 0.0122
- TCCGATTCATGGACCGGTTTTCCCGGTAATCCGTATTTGAG (site TCCGATTCTCT) — within 0.2 log units, 0.00583
- TCCGATTCATGGACCGGTTTTCCCGGTAATCCGTATTTGCC (site TCCAATTCTGG) — within 0.2 log units, 0
- TCCGATTCATGGACCGGTTTTCCCGGTAATCCGTATTTGCC (site TCCCATTCTGG) — within 0.2 log units, 0
- TCCGATTCATGGACCGGTTTTCCCGGTAATCCGTATTTGCC (site TCCGATTCTGG) — within 0.2 log units, 0
- TCCGATTCATGGACCGGTTTTCCCGGTAATCCGTATTTGCC (site TCCTATTCTGG) — within 0.2 log units, 0
- TCCGCAGCATGGACCGGTTTTCCCGGTAATCCGTATTTGAA (site TCCGCAGCTTT) — within 0.2 log units, 0.0198
- TCCGCATCATGGACCGGTTTTCCCGGTAATCCGTATTTGGG (site TCCGCATCTCC) — within 0.2 log units, 0.00533
- TCCGCGACATGGACCGGTTTTCCCGGTAATCCGTATTTGTA (site TCCGCGACTTA) — within 0.2 log units, 0.0159
- TCCGCTACATGGACCGGTTTTCCCGGTAATCCGTATTTGTC (site TCCGCTACTGA) — within 0.2 log units, 0
- TCCGGGCCATGGACCGGTTTTCCCGGTAATCCGTATTTGGG (site TCCGGGCCTCC) — within 0.2 log units, 0.0269
- TCCTACGCATGGACCGGTTTTCCCGGTAATCCGTATTTGAA (site TCCTACGCTTT) — within 0.2 log units, 0.0256
- TCCTACTCATGGACCGGTTTTCCCGGTAATCCGTATTTGCA (site TCATACTCTTG) — within 0.2 log units, 0
- TCCTACTCATGGACCGGTTTTCCCGGTAATCCGTATTTGCA (site TCCTACTCTTG) — within 0.2 log units, 0
